Assay results reported in PubChem BioAssay AID2060626 (Molecular Pharmacology Branch, DTP, NCI, 2025).
pIC50: −log10 of the molar value. Where “and” joins values, the source holds several entries; their conditions need not be identical. Identical values can stand only once.

System: 168753-222-R-J1-PDC complex spheroid viability
Experiment: Anticancer human tumor 168753-222-R-J1-PDC patient-derived bladder carcinoma cell line growth inhibition [CLK]
Settings: for viability, T/C: stronger effect = lower value
How it was run: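 Multi-cell-type spheroids combined patient-derived tumor cells with HUVEC endothelial cells and human mesenchymal stem cells. Paired agents were dosed in half-log steps down from about clinical Cmax, or from 10 microM where Cmax was unknown.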

[1] = curve of first compound, second compound 0.0316 µM
[2] = curve of first compound, second compound 0.1 µM
[3] = curve of first compound, second compound 0.316 µM
[4] = curve of first compound, second compound 1 µM
[5] = curve of first compound, second compound 3.16 µM
[6] = curve of first compound, second compound 10 µM
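Also: viability measured after seven days of drug exposure.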
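For viability, T/C in this document: luminescence signal used as surrogate for viable cell amount; 100% = DMSO vehicle control wells.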

`CC(C)CC(NC(=O)C(Cc1ccccc1)NC(=O)c1cnccn1)B(O)O` (stereo unspecified) + CNC(=O)c1ccc(Nc2nc(OC3CCCC3)c3c(-c4ccc5nc(C)oc5c4)c[nH]c3n2)c(OC)c1 was tested, and the pIC50 [1] was 8.68, the pIC50 [2] was 8.64 and the pIC50 [3] was 8.74. The pIC50 [4] was over 9.02, the pIC50 [5] was over 9.02 and the pIC50 [6] was over 9.02. The viability, T/C (second compound 0.0316 µM, first compound 0.000949 µM) was 98.6%, the viability, T/C (second compound 0.0316 µM, first compound 0.003 µM) was 27.7% and the viability, T/C (second compound 0.0316 µM, first compound 0.00949 µM) was 3.13%. The viability, T/C (second compound 0.0316 µM, first compound 0.03 µM) was 0.6%, the viability, T/C (second compound 0.0316 µM, first compound 0.0949 µM) was 1.66% and the viability, T/C (second compound 0.0316 µM, first compound 0.3 µM) was 0.44%. For the same compound, the viability, T/C (second compound 0.1 µM, first compound 0.000949 µM) was 89.3%, the viability, T/C (second compound 0.1 µM, first compound 0.003 µM) was 38.4% and the viability, T/C (second compound 0.1 µM, first compound 0.00949 µM) was 1.22%. The viability, T/C (second compound 0.1 µM, first compound 0.03 µM) was 0.27%, the viability, T/C (second compound 0.1 µM, first compound 0.0949 µM) was 0.53% and the viability, T/C (second compound 0.1 µM, first compound 0.3 µM) was 2.04%. For the same compound, the viability, T/C (second compound 0.316 µM, first compound 0.000949 µM) was 76.4%, the viability, T/C (second compound 0.316 µM, first compound 0.003 µM) was 29% and the viability, T/C (second compound 0.316 µM, first compound 0.00949 µM) was 0.8%. For the same compound, the viability, T/C (second compound 0.316 µM, first compound 0.03 µM) was 0.28%, the viability, T/C (second compound 0.316 µM, first compound 0.0949 µM) was 1.74% and the viability, T/C (second compound 0.316 µM, first compound 0.3 µM) was 0.24%. The viability, T/C (second compound 1 µM, first compound 0.000949 µM) was 38.4%, the viability, T/C (second compound 1 µM, first compound 0.003 µM) was 26.5% and the viability, T/C (second compound 1 µM, first compound 0.00949 µM) was 2.8%. The viability, T/C (second compound 1 µM, first compound 0.03 µM) was 0.43%, the viability, T/C (second compound 1 µM, first compound 0.0949 µM) was 2.22% and the viability, T/C (second compound 1 µM, first compound 0.3 µM) was 1.45%. The viability, T/C (second compound 3.16 µM, first compound 0.000949 µM) was 21.6%, the viability, T/C (second compound 3.16 µM, first compound 0.003 µM) was 20.2% and the viability, T/C (second compound 3.16 µM, first compound 0.00949 µM) was 0.44%. It also gave a viability, T/C (second compound 3.16 µM, first compound 0.03 µM) of 0.17%, a viability, T/C (second compound 3.16 µM, first compound 0.0949 µM) of 0.2% and a viability, T/C (second compound 3.16 µM, first compound 0.3 µM) of 0.35%. It also gave a viability, T/C (second compound 10 µM, first compound 0.000949 µM) of 21%, a viability, T/C (second compound 10 µM, first compound 0.003 µM) of 18.4% and a viability, T/C (second compound 10 µM, first compound 0.00949 µM) of 0.38%. It also gave a viability, T/C (second compound 10 µM, first compound 0.03 µM) of 1.09%, a viability, T/C (second compound 10 µM, first compound 0.0949 µM) of 1.85% and a viability, T/C (second compound 10 µM, first compound 0.3 µM) of 0.25%.

With `CC1(C)CCC(CN2CCN(c3ccc(C(=O)NS(=O)(=O)c4ccc(NCC5CCOCC5)c([N+](=O)[O-])c4)c(Oc4cnc5[nH]ccc5c4)c3)CC2)=C(c2ccc(Cl)cc2)C1` the viability, T/C (compound 0.0316 µM) was 87% and 96.7%, the viability, T/C (compound 0.1 µM) was 97% and 94.3% and the viability, T/C (compound 0.316 µM) was 74% and 113%. The viability, T/C (compound 1 µM) was 112% and 102%, the viability, T/C (compound 3.16 µM) was 54.4% and 93.3% and the viability, T/C (compound 10 µM) was 10.7% and 22%. The pIC50 (curve of compound) was 5.45 and 5.20.

`CCCS(=O)(=O)Nc1ccc(F)c(C(=O)c2c[nH]c3ncc(-c4ccc(Cl)cc4)cc23)c1F` + CNC(=O)c1ccc(Nc2nc(OC3CCCC3)c3c(-c4ccc5nc(C)oc5c4)c[nH]c3n2)c(OC)c1 was tested, and the pIC50 [1] was under 5.00, the pIC50 [2] was under 5.00 and the pIC50 [3] was 5.01. For the same compound, the pIC50 [4] was 5.41, the pIC50 [5] was over 7.50 and the pIC50 [6] was over 7.50. The viability, T/C (second compound 0.0316 µM, first compound 0.0316 µM) was 109%, the viability, T/C (second compound 0.0316 µM, first compound 0.1 µM) was 105% and the viability, T/C (second compound 0.0316 µM, first compound 0.316 µM) was 113%. For the same compound, the viability, T/C (second compound 0.0316 µM, first compound 1 µM) was 116%, the viability, T/C (second compound 0.0316 µM, first compound 3.16 µM) was 105% and the viability, T/C (second compound 0.0316 µM, first compound 10 µM) was 68.1%. For the same compound, the viability, T/C (second compound 0.1 µM, first compound 0.0316 µM) was 91.6%, the viability, T/C (second compound 0.1 µM, first compound 0.1 µM) was 103% and the viability, T/C (second compound 0.1 µM, first compound 0.316 µM) was 105%. For the same compound, the viability, T/C (second compound 0.1 µM, first compound 1 µM) was 106%, the viability, T/C (second compound 0.1 µM, first compound 3.16 µM) was 103% and the viability, T/C (second compound 0.1 µM, first compound 10 µM) was 66.2%. For the same compound, the viability, T/C (second compound 0.316 µM, first compound 0.0316 µM) was 92.3%, the viability, T/C (second compound 0.316 µM, first compound 0.1 µM) was 98.7% and the viability, T/C (second compound 0.316 µM, first compound 0.316 µM) was 93.1%. It also gave a viability, T/C (second compound 0.316 µM, first compound 1 µM) of 104%, a viability, T/C (second compound 0.316 µM, first compound 3.16 µM) of 101% and a viability, T/C (second compound 0.316 µM, first compound 10 µM) of 49.3%. It also gave a viability, T/C (second compound 1 µM, first compound 0.0316 µM) of 53.7%, a viability, T/C (second compound 1 µM, first compound 0.1 µM) of 50.7% and a viability, T/C (second compound 1 µM, first compound 0.316 µM) of 46.9%. The viability, T/C (second compound 1 µM, first compound 1 µM) was 57.2%, the viability, T/C (second compound 1 µM, first compound 3.16 µM) was 64% and the viability, T/C (second compound 1 µM, first compound 10 µM) was 28.6%. For the same compound, the viability, T/C (second compound 3.16 µM, first compound 0.0316 µM) was 25.1%, the viability, T/C (second compound 3.16 µM, first compound 0.1 µM) was 33.7% and the viability, T/C (second compound 3.16 µM, first compound 0.316 µM) was 34.4%. For the same compound, the viability, T/C (second compound 3.16 µM, first compound 1 µM) was 30.1%, the viability, T/C (second compound 3.16 µM, first compound 3.16 µM) was 29.6% and the viability, T/C (second compound 3.16 µM, first compound 10 µM) was 26.1%. It also gave a viability, T/C (second compound 10 µM, first compound 0.0316 µM) of 20%, a viability, T/C (second compound 10 µM, first compound 0.1 µM) of 31.2% and a viability, T/C (second compound 10 µM, first compound 0.316 µM) of 29.7%. The viability, T/C (second compound 10 µM, first compound 1 µM) was 20.1%, the viability, T/C (second compound 10 µM, first compound 3.16 µM) was 27.8% and the viability, T/C (second compound 10 µM, first compound 10 µM) was 24%.
